These results are taken from patent US10112895B2, “Antivirals against molluscum contagiosum virus” (priority 2014, dated 2018).

The subject of series [1] is mD4-VV hybrid virus. The series is described as follows: microbe, parasite or virus in culture. The class given is cell-based, vaccinia hybrid virus containing mD4 of MCV. The following applies: for EC50: Hybrid virus.
The target in series [2] is mD4-dependent processive DNA synthesis (6His-mD4, vA20 and vE9) (Molluscum contagiosum virus, UniProt Q98260). The series is described as follows: biochemical. On the set-up: species or system molluscum contagiosum virus / vaccinia virus.
The test system of series [3] is mD4-VV hybrid virus. The series is described as follows: mD4-VV infection of 3-D human skin organ culture (viral titer and histology). The class given is cell-based. The following applies: for viral titer of mD4-VV in 3-D human skin organ culture: 3 days post infection, compared to DMSO drug vehicle.
For series [4], the target named is T1, mD4 (Molluscum contagiosum virus, UniProt Q98260). Nature of the series: Binding to immobilized mD4 by SPR (Surface Plasmon Resonance). To be noted: steady-state response, 1:1 binding model, 0-250 μM, 1% DMSO; read-out: binding affinity KD to mD4 protein by SPR. The method, then: The binding of compound 2 to mD4 was determined by SPR. mD4 was immobilized onto a biosensor chip at ˜3500 RU, and compound 2 was injected at 0-250 μM in buffer with 1% DMSO. The binding affinity KD was determined from the plot of steady-state response (Req) against compound 2 concentrations and fitting to a 1:1 binding model (FIG. 10).

Series [5] relates to 2-D keratinocyte cultures. Nature of the series: Toxicity on 2-D keratinocyte cultures. The class given is cell-based. To be noted: at the concentrations used in the 3-D culture experiment.
Series [6] in a line: Half-life stability in mouse liver microsomes. The format is in vitro ADME. The following applies: for half-life: mouse, liver microsomes.
For series [7], the system named is vD4-VV rescue virus. The series is described as follows: microbe, parasite or virus in culture. The format is cell-based. The following applies: Orthopoxvirus vaccinia, BSC-1, 16 h, read-out: EC50, plaque reduction of vD4-VV rescue virus.
For series [8], the system named is BSC-1 cells. To be noted: as previously determined; read-out: cytotoxicity CC50 on BSC-1 cells; cited from earlier work.
The target in series [9] is T1, mD4. The series is described as follows: Thermal shift (differential scanning fluorimetry) assay with purified 6His-mD4. The class given is binding. The following applies: difference to DMSO mock treatment. As for the experimental part: Thermal shift assay. Thermal shift (differential scanning fluorimetry) assay was performed as previously described. Briefly, 5 μM purified 6His-mD4 was mixed with compounds in thin-wall PCR 96-plate wells at 20 μL total volume containing 25 mM phosphate buffer (pH 6.8), 0.2 M NaCl, 2.5% glycerol, 2% DMSO, 0.005% (w/v) Triton-X100, and 1× Sypro Orange. Fluorescence intensities were monitored using the Applied Biosystems 7500 Fast Real-Time PCR system (Carlsbad, Calif.) at 582 nm from 25-80 ° C. at a rate of 1° C./min To generate melting temperature (Tm), protein melting curves were plotted on GraphPad Prism and fitted to the Boltzmann sigmoidal model. Thermal shift (ΔTm) is the difference between the 2% DMSO mock-treatment and inhibitor treatment. All experiments were duplicated and repeated independently.
In general terms: DSF heats the sample and reads unfolding from a dye or from intrinsic fluorescence.

Series [10] concerns mD4-VV hybrid virus. The format is cell-based, vaccinia hybrid virus containing mD4 of MCV.
Where [11] appears, read: BSC-1, 16 h, read-out: EC50, plaque reduction of mD4-VV hybrid virus.

SMILES strings stand for the structures. Entries after “also recorded” stand apart in the source; their conditions may differ. Read-outs that look alike come from different tables or passages of the source.

T1 sequence (Q98260 1-226): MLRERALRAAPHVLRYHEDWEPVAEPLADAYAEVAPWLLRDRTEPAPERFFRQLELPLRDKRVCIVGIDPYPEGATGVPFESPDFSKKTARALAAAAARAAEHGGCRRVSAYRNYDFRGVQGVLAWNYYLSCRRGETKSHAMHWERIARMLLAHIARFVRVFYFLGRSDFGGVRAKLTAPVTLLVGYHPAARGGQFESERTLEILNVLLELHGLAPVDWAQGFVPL
mD4-dependent processive DNA synthesis (6His-mD4, vA20 and vE9), sequence (Q98260 1-226): as above

In the case of `O=c1[nH]c2ccc(NCc3cc(Cl)ccc3OCc3ccccc3F)cc2[nH]1` [Compound 8, 5-[[5-chloro-2-[(2-fluorophenyl)methoxy]phenyl]methylamino]-1,3-dihydrobenzimidazol-2-one], the EC50 (in general, the concentration that produces a half-maximal response) in series [1] (BSC-1, read-out: EC50 (mD4-VV)) came out at 11 µM.

Take `O=[N+]([O-])c1cccc(COc2ccccc2CNc2ccccc2O)c1` [Compound 11, 2-[[2-[(3-nitrophenyl)methoxy]phenyl]methylamino]phenol]: the EC50 in [1] (BSC-1, read-out: EC50 (mD4-VV)) was 17.7 µM.

With `O=c1[nH]c2ccc(NCc3ccccc3OCc3ccc(Cl)cc3)cc2[nH]1` [Compound 4, 5-[[2-[(4-chlorophenyl)methoxy]phenyl]methylamino]-1,3-dihydrobenzimidazol-2-one], the EC50 in series [1] (BSC-1, read-out: EC50 (mD4-VV)) came to 11 µM.

As to `O=[N+]([O-])c1cccc(COc2ccccc2CNc2ccc(O)cc2)c1` [Compound 9, 4-[[2-[(3-nitrophenyl)methoxy]phenyl]methylamino]phenol], the EC50 in [1] (BSC-1, read-out: EC50 (mD4-VV)) was determined as 13.3 µM.

`Oc1ccc(NCc2cc(Br)ccc2OCc2ccc(F)cc2)cc1` [Compound 1, 4-[[5-bromo-2-[(4-fluorophenyl)methoxy]phenyl]methylamino]phenol]: the EC50 in series [1] (BSC-1, read-out: EC50 (mD4-VV)) was determined as 19.9 µM.

On to `Oc1ccc(NCc2ccccc2OCc2ccccc2)c(F)c1` [Compound 12, 4-[(2-benzyloxyphenyl)methylamino]-3-fluoro-phenol], for which the EC50 in [1] (BSC-1, read-out: EC50 (mD4-VV)) came to 19.4 µM.

On to `c1ccc(COc2ccccc2CNc2ccc3[nH]ncc3c2)cc1` [Compound 14, N-[(2-benzyloxyphenyl)methyl]-1H-indazol-5-amine], for which the EC50 in [1] (BSC-1, read-out: EC50 (mD4-VV)) amounted to 7.9 µM.

As for `NS(=O)(=O)c1ccc(NCc2cc(Cl)ccc2OCc2ccccc2)cc1` [Compound 3, 4-[(2-benzyloxy-5-chloro-phenyl)methylamino]benzenesulfonamide], the 50% effective concentration (EC50) in series [1] (BSC-1, read-out: EC50 (mD4-VV)) amounted to 13.9 µM.

As for `Nc1nc2c(ncn2COCCO)c(=O)[nH]1` [acyclovir, reference compound], the “inhibitory effect in plaque reduction assay” value in series [1] was “no inhibitory effect”.

In the case of `O=c1[nH]c2ccc(NCc3ccccc3OCc3ccccc3)cc2[nH]1` [Compound 2, 5-[(2-benzyloxyphenyl)methylamino]-1,3-dihydrobenzimidazol-2-one], in series [2], the “blocking processive DNA synthesis in vitro” value was “specific blocking processive DNA synthesis in vitro”. Moreover, the “viral titer of mD4-VV in 3-D human skin organ culture” value in series [3] is given as “blocks mD4-VV viral infection”; in series [3] (listed as compound 2), “significant decline in the viral titer”. The “histological analysis of 3-D human skin organ culture infected with mD4-VV” value in series [3] (H&E stained cross-section, 3 days after infection) is listed as “abundant population of stained keratinocytes was observed; also recorded: protection of the 3-D human skin organ culture”. In addition, the Kd – broadly, the constant that tells how readily two partners part at equilibrium – in [4] stood at 32.8 µM. In addition, the “toxicity on 2-D keratinocyte cultures” value in series [5] is “not toxic”. The EC50 stood at 3 µM in [1] (setting [11]) and 10 µM in series [1] (BSC-1, read-out: EC50 (mD4-VV)). Moreover, the “increase of half-life in mouse liver microsomes above compound 10” value in [6] (compound 2 versus compound 10) is “greater than 5 fold”. In addition, in series [6], the half-life (usually how long it takes for the measured level to halve) amounted to 36 min.

Consider `Oc1ccc(NCc2ccccc2OCc2ccccc2)cc1` [Compound 10, 4-[(2-benzyloxyphenyl)methylamino]phenol], for which, in series [2], the IC50 – broadly, the concentration that gives 50% inhibition – is 28 µM. Further, the 50% effective concentration (EC50) in series [7] is 11 µM; in [1] (setting [11]) it was 14 µM; in series [1] (BSC-1, read-out: EC50 (mD4-VV)), 35.6 µM. Further, the CC50 (as a rule, the concentration giving 50% cytotoxicity) in series [8] was 175 µM. In addition, the “Thermal shift (ΔTm) of 6His-mD4” value in [9] (10 μM compound) worked out at 2.2 °C; in [9] (40 μM compound), 3.3 °C. This compound returned a half-life in series [6] of 6.7 min. In series [10], the “mD4-VV genomic DNA accumulation” value is recorded as “completely prevented”.

As for `O=c1[nH]c2ccc(NCc3cc(Br)ccc3OCc3ccccc3)cc2[nH]1` [Compound 7, 5-[(2-benzyloxy-5-bromo-phenyl)methylamino]-1,3-dihydrobenzimidazol-2-one], in series [1] (BSC-1, read-out: EC50 (mD4-VV)), the EC50 amounted to 11 µM.

For the compound `c1ccc(COc2ccccc2CNc2ccc(-c3cnco3)cc2)cc1` [Compound 13, N-[(2-benzyloxyphenyl)methyl]-4-oxazol-5-yl-aniline], the EC50 in series [1] (BSC-1, read-out: EC50 (mD4-VV)) came to 14.4 µM.

Turning to `O=c1[nH]c2ccc(NCc3ccccc3OCc3ccc(F)cc3)cc2[nH]1` [Compound 6, 5-[[2-[(4-fluorophenyl)methoxy]phenyl]methylamino]-1,3-dihydrobenzimidazol-2-one], the EC50 in series [1] (BSC-1, read-out: EC50 (mD4-VV)) was 13.9 µM.
